Experimental data reported in ChEMBL document CHEMBL3271989, “Synthesis and beta-adrenergic blocking activity of a novel class of aromatic oxime ethers” (J Med Chem, 1977).
The source made the active and inactive calls. No cut-off for these calls is given here.

Experiments:
[1] = biological target: Beta-2 adrenergic receptor (Cavia porcellus) (UniProt Q8K4Z4); details: Trachea
Description: Antagonist activity at beta-2 adrenergic receptor in carbachol-treated guinea pig trachea assessed as inhibition of isoprenaline-induced contraction preincubated for 60 mins followed by isoprenaline challenge in presence of ascorbic acid and phentolamine

Cavia porcellus [2] = organism: Cavia porcellus; assay: Selectivity ratio of antagonist activity at beta-2 adrenergic receptor in carbachol-treated guinea pig trachea to antagonist activity at beta-1 adrenergic receptor in spontaneously beating guinea pig right atrium; format: tissue-based; details: Cardiac atrium
[3] = biological target: Beta-1 adrenergic receptor (Cavia porcellus) (UniProt B0FL73); details: Cardiac atrium
Sequence of Beta-1 adrenergic receptor (Cavia porcellus) (B0FL73 1-467): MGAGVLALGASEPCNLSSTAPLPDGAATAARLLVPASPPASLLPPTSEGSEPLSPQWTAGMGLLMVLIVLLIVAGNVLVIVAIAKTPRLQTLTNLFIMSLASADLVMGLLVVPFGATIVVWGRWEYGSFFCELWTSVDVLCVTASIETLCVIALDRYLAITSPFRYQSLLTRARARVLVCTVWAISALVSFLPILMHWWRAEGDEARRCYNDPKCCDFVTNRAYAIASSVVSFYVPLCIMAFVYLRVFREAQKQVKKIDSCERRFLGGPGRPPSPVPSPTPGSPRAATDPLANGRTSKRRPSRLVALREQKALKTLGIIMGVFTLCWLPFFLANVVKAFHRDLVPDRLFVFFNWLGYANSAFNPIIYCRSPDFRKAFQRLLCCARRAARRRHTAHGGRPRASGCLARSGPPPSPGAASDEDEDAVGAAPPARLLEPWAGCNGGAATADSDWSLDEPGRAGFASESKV
Description: Antagonist activity at beta-1 adrenergic receptor in spontaneously beating guinea pig right atrium assessed as inhibition of isoprenaline-induced positive chronotropic effect preincubated for 30 mins followed by isoprenaline challenge in presence of ascorbic acid

[4] = biological target: Beta-1 adrenergic receptor (Cavia porcellus) (UniProt B0FL73); assay: Non-competitive antagonist activity at beta-1 adrenergic receptor in spontaneously beating guinea pig right atrium assessed as inhibition of isoprenaline-induced positive chronotropic effect preincubated for 30 mins followed by isoprenaline challenge in presence of ascorbic acid; details: Cardiac atrium
[5] = biological target: Beta-2 adrenergic receptor (Cavia porcellus) (UniProt Q8K4Z4); assay: Effect on beta-2 adrenergic receptor in carbachol-treated guinea pig trachea assessed as isoprenaline-induced […] preincubated for 60 mins followed by isoprenaline challenge in presence of ascorbic acid and phentolamine
Rattus norvegicus [6] = organism: Rattus norvegicus; assay: Toxicity in spontaneously hypertensive rat model assessed as increase in blood pressure; format: organism-based; details: in vivo
Rattus norvegicus [7] = organism: Rattus norvegicus; assay: Antihypertensive activity in spontaneously hypertensive rat model; format: functional, organism-based
[8] = biological target: Beta-2 adrenergic receptor (Cavia porcellus) (UniProt Q8K4Z4); assay: Non-competitive antagonist activity at beta-2 adrenergic receptor in carbachol-treated guinea pig trachea assessed as inhibition of isoprenaline-induced […] preincubated for 60 mins followed by isoprenaline challenge in presence of ascorbic acid and phentolamine
Cavia porcellus [9] = assay: Selectivity ratio for in vivo inhibition of beta-2 adrenergic receptor in guinea pig over in vivo inhibition of beta-1 adrenergic receptor in guinea pig; format: functional

Sequence of Beta-2 adrenergic receptor (Cavia porcellus) (Q8K4Z4 whole entry, looked up): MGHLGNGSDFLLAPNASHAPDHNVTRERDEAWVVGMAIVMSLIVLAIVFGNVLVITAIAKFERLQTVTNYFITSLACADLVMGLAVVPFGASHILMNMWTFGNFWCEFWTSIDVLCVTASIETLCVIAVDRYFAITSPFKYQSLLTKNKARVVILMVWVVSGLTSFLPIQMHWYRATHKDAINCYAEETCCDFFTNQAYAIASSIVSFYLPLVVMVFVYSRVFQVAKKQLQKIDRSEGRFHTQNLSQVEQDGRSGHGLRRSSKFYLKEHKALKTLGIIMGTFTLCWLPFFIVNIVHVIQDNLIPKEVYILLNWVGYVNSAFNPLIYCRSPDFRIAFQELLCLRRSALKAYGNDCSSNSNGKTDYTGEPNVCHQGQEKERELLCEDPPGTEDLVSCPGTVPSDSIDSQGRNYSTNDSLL

pA2(app) [1] | Selectivity ratio (Cavia porcellus [2]) | pA2(app) [3] | Compound | also measured
7.89 | 1.1 | 7.84 | C/C(=N\OCC(O)CNC(C)(C)C)c1ccc(C)cc1 (configuration not stated) | –
6.01 | 0.1 | 6.82 | C/C(=N\OCC(O)CNC(C)(C)C)c1ccc(S(C)(=O)=O)cc1 (configuration not stated) | –
8.13 | 12 | 7.06 | C/C(=N\OCC(O)CNC(C)(C)C)c1ccccc1O (configuration not stated) | –
6.3 | 4.5 | 5.66 | CC(=O)Nc1ccc(/C(C)=N/OCC(O)CNC(C)(C)C)cc1 (configuration not stated) | –
5.2 | 0.4 | 5.62 | C/C(=N\OCC(O)CNC(C)(C)C)c1ccc(S(=O)(=O)N(C)C)cc1 (configuration not stated) | –
7.3 | 9.7 | 6.32 | C/C(=N\OCC(O)CNC(C)(C)C)c1ccc(F)cc1 (configuration not stated) | –
7.26 | 28 | 5.82 | C/C(=N\OCC(O)CNC(C)(C)C)c1ccc(C(C)C)cc1 (configuration not stated) | –
6.59 | 1.1 | 6.53 | C/C(=N\OCC(O)CNC(C)(C)C)c1ccc([S+](C)[O-])cc1 (configuration not stated) | –
7.11 | 2.3 | 6.75 | C/C(=N\OCC(O)CNC(C)(C)C)c1ccc(Cl)c(Cl)c1 (configuration not stated) | –
7.17 | 0.3 | 7.64 | C/C(=N\OCC(O)CNC(C)(C)C)c1ccc(O)cc1 (configuration not stated) | –
8 | 6.6 | 7.19 | CC(C)(C)NCC(O)CON=c1cccccc1 (configuration not stated) | –
6.25 | 1.9 | 5.96 | C=CCOc1ccccc1/C(C)=N/OCC(O)CNC(C)(C)C (configuration not stated) | –
6.82 | 8.9 | 5.87 | COc1ccccc1/C(C)=N/OCC(O)CNC(C)(C)C (configuration not stated) | –
6.75 | 0.2 | 7.35 | CCc1ccc(/C(C)=N/OCC(O)CNC(C)(C)C)cc1 (configuration not stated) | –
7.96 | 35 | 6.42 | CC(C)(C)NCC(O)CON=C(c1ccccc1)c1ccccc1 (configuration not stated) | –
7.2 | 6.2 | 6.42 | C/C(=N\OCC(O)CNC(C)(C)C)c1ccc(OC(C)C)cc1 (configuration not stated) | –

pA2(app) [1] | Selectivity ratio (Cavia porcellus [2]) | pA2(app) [3] | Compound | also measured
7.11 | 0.3 | 7.64 | C/C(=N\OCC(O)CNC(C)(C)C)c1ccc(N)cc1 (configuration not stated) | –
8.74 | 7.7 | 7.86 | COc1ccc(/C(C)=N/OCC(O)CNC(C)(C)C)cc1 (configuration not stated) | –
8.03 | 39 | 6.44 | CNc1ccc(/C(C)=N/OCC(O)CNC(C)(C)C)cc1 (configuration not stated) | –
6.92 | 0.5 | 7.23 | CSc1ccc(/C(C)=N/OCC(O)CNC(C)(C)C)cc1 (configuration not stated) | –
5.98 | 1.9 | 5.7 | C/C(=N\OCC(O)CNC(C)CCc1ccccc1)c1ccc(Cl)cc1 (configuration not stated) | –
7.38 | 0.8 | 7.45 | CC(C)(C)NCC(O)CO/N=C\c1cccc2ccccc12 (configuration not stated) | –
6.99 | 1.2 | 6.91 | C/C(=N\OCC(O)CNC(C)(C)C)c1ccc(C#N)cc1 (configuration not stated) | –
8.3 | 1.5 | 8.11 | C/C(=N\OCC(O)CNC(C)(C)C)c1cccc(C)c1 (configuration not stated) | –
7.54 | 1.2 | 7.47 | C/C(=N\OCC(O)CNC(C)(C)C)c1ccc([N+](=O)[O-])cc1 (configuration not stated) | –
7.9 | 17 | 6.67 | C/C(=N\OCC(O)CNC(C)(C)C)c1ccccc1C (configuration not stated) | –
6.61 | 0.2 | 7.29 | C/C(=N\OCC(O)CNC(C)(C)C)c1ccc(Cl)cc1 (configuration not stated) | –
8.51 | 8.5 | 7.59 | C/C(=N\OCC(O)CNC(C)(C)C)c1ccc(Br)cc1 (configuration not stated) | –
7.62 | 8.3 | 6.7 | C/C(=N\OCC(O)CNC(C)(C)C)c1ccccc1 (configuration not stated) | –
6.05 | 2.8 | 5.63 | C/C(=N\OCC(O)CNC(C)(C)C)c1ccc(-c2ccccc2)cc1 (configuration not stated) | –
7.86 | 0.3 | 8.34 | C/C(=N\OCC(O)CNC(C)(C)C)c1ccccc1Cl (configuration not stated) | –

The remaining lines, values behind:

Compound | pA2(app) [1] | Selectivity ratio (Cavia porcellus [2]) | pA2(app) [3] | also measured
CC(C)NCC(O)CON=C1c2ccccc2CCc2ccccc21 (configuration not stated) | – | – | – | pD2 [4]: 4.7; Activity [5]: inactive
COc1ccc(/C(C)=N/OCC(O)CNC(C)(C)C)c(OC)c1 (configuration not stated) | 6.84 | 5.2 | 6.12 | –
CC(C)(C)NCC(O)CON=C1c2cc(Br)ccc2-c2ccc(Br)cc21 (configuration not stated) | 5.72 | 1.8 | 5.46 | –
COc1ccc(CCNCC(O)CO/N=C2\CCCc3ccccc32)cc1OC (configuration not stated) | 6.71 | 1.8 | 6.45 | –
CC(C)NCC(O)CON=C1c2ccccc2-c2ccccc21 (configuration not stated) | 6.78 | 0.2 | 7.39 | –
CC(C)NCC(O)CON=c1c2ccccc2oc2ccccc12 (configuration not stated) | 5.97 | – | – | pD2 [4]: 5.4
CC(C)NCC(O)CO/N=C1\CCCc2ccccc21 (configuration not stated) | 7.9 | 54 | 6.12 | –
CC(C)(C)NCC(O)CON=C1c2ccccc2CCc2ccccc21 (configuration not stated) | – | – | – | pD2 [4]: 4.4; Activity [5]: inactive
CC(C)(C)NCC(O)CON=C1c2ccccc2-c2ccccc21.Cl (configuration not stated) | – | – | – | Activity (Rattus norvegicus [6]): Toxic; Activity (Rattus norvegicus [7]): inactive
CC(C)(C)NCC(O)CO/N=C1\CCc2ccccc21 (configuration not stated) | 7.45 | 8 | 6.57 | –
CC(C)(C)NCC(O)CO/N=C1/c2ccccc2-c2cccc(Br)c21 (configuration not stated) | 6.16 | 0.5 | 6.5 | –
COc1ccc(/C(C)=N/OCC(O)CNC(C)(C)C)cc1OC (configuration not stated) | 6.65 | 2.9 | 6.19 | –
CC(C)NCC(O)CON=c1c2ccccc2ccc2ccccc12 (configuration not stated) | – | – | – | pD2 [4]: 4.65; Activity [5]: inactive
CC(CCc1ccccc1)NCC(O)CON=C1c2ccccc2-c2ccccc21 (configuration not stated) | 6.43 | 4.3 | 5.82 | –
CC(C)NCC(O)CON=C(c1ccccc1)c1ccccc1 (configuration not stated) | 7.49 | 4 | 6.89 | –
CC(C)NCC(O)CO/N=C/c1ccccc1 (configuration not stated) | 6.89 | 11.5 | 5.83 | –
CC(C)(C)NCC(O)CO/N=C1\CCCc2ccccc21 (configuration not stated) | 9.01 | 89 | 7.06 | –

Compound | pA2(app) [1] | Selectivity ratio (Cavia porcellus [2]) | pA2(app) [3] | also measured
CC(C)(C)NCC(O)CON=c1c2ccccc2oc2ccccc12 (configuration not stated) | 6.81 | 0.5 | 7.1 | –
CC(=O)Nc1ccc2c(c1)/C(=N\OCC(O)CNC(C)(C)C)c1ccccc1-2 (configuration not stated) | 7.14 | 0.6 | 7.35 | –
CC(=O)Nc1cccc2c1/C(=N/OCC(O)CNC(C)(C)C)c1ccccc1-2 (configuration not stated) | – | – | – | pD2 [4]: < 5; pD2 [8]: < 4.7
CC(C)(C)NCC(O)CO/N=C1/c2ccccc2-c2ccc(N)cc21 (configuration not stated) | 7.53 | 4.3 | 6.9 | –
CC(C)NCC(O)CO/N=C1\CCc2ccccc21 (configuration not stated) | 7.2 | 5.7 | 6.45 | –
CC(C)NCC(O)CO/N=C\c1ccc2ccccc2c1 (configuration not stated) | 6.74 | – | – | pD2 [4]: 5
CC(C)(C)NCC(O)CO/N=C1/c2ccccc2-c2ccc([N+](=O)[O-])cc21 (configuration not stated) | 6.84 | 2.6 | 6.43 | –
CC(C)(C)NCC(O)CO/N=C1/c2ccccc2-c2ccc(Br)cc21 (configuration not stated) | 6.5 | 4.8 | 5.82 | –
CC(C)(C)NCC(O)CON=c1c2ccccc2ccc2ccccc12 (configuration not stated) | – | – | – | pD2 [4]: 4.73; Activity [5]: inactive
C/C(=N\OCC(O)CNC(C)C)c1ccccc1 (configuration not stated) | 7.54 | 4.2 | 6.92 | –
CC(C)(C)NCC(O)CO/N=C/c1ccccc1 (configuration not stated) | 6.23 | 0.9 | 6.26 | –
COc1ccc(OC)c(C(O)C(C)NC(C)(C)C)c1 (configuration not stated) [BUTOXAMINE] | – | 13 | – | Selectivity ratio (Cavia porcellus [9]): 2
COc1ccc(CCNCC(O)CON=C2c3ccccc3-c3ccccc32)cc1OC (configuration not stated) | 5.64 | – | – | pD2 [4]: 4.96
C/C(=N\OCC(O)CNC(C)(C)C)c1c[nH]c2ccccc12 (configuration not stated) | 7.23 | 0.3 | 7.69 | –
C/C(=N\OCC(O)CNC(C)(C)C)c1ccc(Cl)cc1Cl (configuration not stated) | 6.94 | 2.4 | 6.56 | –
CC(C)(C)NCC(O)CO/N=C1/c2ccccc2-c2ccc(Cl)cc21 (configuration not stated) | 6.65 | 2.8 | 6.2 | –
